Ends that are not written are not given here.
Legend:
[1] = target: T1, phospholipase A2 from human inflammatory sites (the joint fluid from patients with rheumatoid arthritis) (Homo sapiens, UniProt P14555); test: Determination of inhibitory activity against phospholipase A2 (human inflammatory sites); assay type: biochemical; details: phosphatidylethanolamine substrate, pH 9.0, 37° C., 10 minutes
T1 construct: from human inflammatory sites (the joint fluid from patients with rheumatoid arthritis); from tissue; host or cells: joint fluid from patients with rheumatoid arthritis
T1 sequence (P14555 21-144): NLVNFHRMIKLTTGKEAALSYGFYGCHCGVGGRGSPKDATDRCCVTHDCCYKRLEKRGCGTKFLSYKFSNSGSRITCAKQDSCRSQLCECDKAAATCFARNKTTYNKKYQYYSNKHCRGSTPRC
Protocol: (§1) The activity-measuring system was prepared by adding distilled water to 100 mM Tris-HCl (ph 9.0), 4 mM calcium chloride, 0.1 mM phosphatidylethanolamine (2,000 dpm/nmol), and 10 μl sample to adjust the total volume to 240 μl, and finally 10 μl of 0.1 ng/μ1 phospholipase A2 was added. The phospholipases A2 used were from human inflammatory sites (the joint fluid from patients with rheumatoid arthritis) (Hara et al., J. Biochem., 104, 326-328, 1988), rat inflammatory sites (Chang et al., J. Biochem., 102, 147-154, 1987), and porcine pancreas (Boehringer Manheim Co.). Phosphatidylethanolamine was purified from Escherichia coli cultured in a medium to which acetic acid was added.
(§2) The reactions were conducted at 37° C. with stirring for 10 minutes. The termination of the reaction and the extraction of fatty acids generated were carried out by the Dole's method (Dole et al., J. Biol. Chem., 235, 2595-2599, 1960) and the extracted fatty acid was determined with a scintillation counter.
(§3) The lyophilyzed sample obtained in Example 1 was dissolved again in 50% acetone-0.1% trifluoroacetic acid to adjust the concentration to 10 mg/ml. The solution was further diluted stepwise with the same buffer and the inhibitory activity of phospholipase A2 from inflammatory sites was determined at individual concentrations.

[2] = target: T2, phospholipase A2 from rat inflammatory sites (Rattus norvegicus, UniProt P14423); test: Determination of inhibitory activity against phospholipase A2 (rat inflammatory sites); assay type: biochemical; details: phosphatidylethanolamine substrate, pH 9.0, 37° C., 10 minutes
T2 construct: rat inflammatory sites (Chang et al., J. Biochem., 102, 147-154, 1987); from tissue
T2 sequence (P14423 22-146): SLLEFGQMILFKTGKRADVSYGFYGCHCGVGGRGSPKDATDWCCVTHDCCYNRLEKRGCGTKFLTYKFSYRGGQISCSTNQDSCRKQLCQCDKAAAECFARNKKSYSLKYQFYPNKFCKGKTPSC
Protocol: as §1, §2, §3

Q: What does the source list for QKDAPDHQELNLDVSLQLPSR?
A: IC50 [1]: ~500 nM; IC50 [2]: ~500 nM

— patent US5374713A, “Peptide inhibitors of phospholipase A2 purified from inflammatory sites” (Teijin Limited, priority 1990, dated 1994)
